Results reported in PMC6409085, “Three odorant-binding proteins are involved in the behavioral response of Sogatella furcifera to rice plant volatiles” (PeerJ, 2019).
pIC50: −log10 of the molar value. “And” between values parts separate entries of the source, which are not always exact repeats. Equal entries are not always repeated.

What was measured:
SfurOBP2 = SfurOBP2 (Sogatella furcifera, UniProt V5T759); experiment: biochemical; type: binding
Outline: (§1)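 K1-NPN came from titrating 2.0 µM protein (50 mM Tris-HCl, pH 7.4) with 1-NPN. Odorants at 2-20 µM then competed against 2.0 µM protein plus 2.0 µM 1-NPN for 2 min, with excitation at 337 nm and emission recorded over 390-490 nm. IC50 values were converted to Ki via Ki = IC50/(1 + [1-NPN]/K1-NPN).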

SfurOBP11 = SfurOBP11 (Sogatella furcifera, UniProt V5T6E3); experiment: biochemical; type: binding
Sequence of SfurOBP11 (V5T6E3 entry or part of it): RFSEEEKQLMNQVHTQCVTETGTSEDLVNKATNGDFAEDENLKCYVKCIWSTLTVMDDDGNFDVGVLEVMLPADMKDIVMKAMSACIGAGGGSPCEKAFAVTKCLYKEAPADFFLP
Outline: as §1

SfurOBP1 = SfurOBP1 (Sogatella furcifera, UniProt V5T8N5); experiment: biochemical; type: binding; details: for Fluorescence competitive binding assay, fluorescence intensity: OBP1, three replicate columns
Sequence of SfurOBP1 (V5T8N5 entry or part of it): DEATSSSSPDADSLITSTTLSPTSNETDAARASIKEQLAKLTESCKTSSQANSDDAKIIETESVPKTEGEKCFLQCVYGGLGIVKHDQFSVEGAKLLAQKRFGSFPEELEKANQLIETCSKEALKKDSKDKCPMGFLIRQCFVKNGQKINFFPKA
Outline: as §1

SfurOBP3 = SfurOBP3 (Sogatella furcifera, UniProt V5T818); experiment: biochemical; type: binding; details: for Fluorescence competitive binding assay, fluorescence intensity: OBP3, three replicate columns
Sequence of SfurOBP3 (V5T818 entry or part of it): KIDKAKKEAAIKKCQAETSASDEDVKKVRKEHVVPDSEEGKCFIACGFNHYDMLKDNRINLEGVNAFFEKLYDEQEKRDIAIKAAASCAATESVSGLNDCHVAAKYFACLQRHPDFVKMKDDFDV
Outline: as §1

S. furcifera adults = experiment: Y-tube olfactometer behavioral trials; type: in vivo, Sogatella furcifera; details: odorant 50 µL/L vs hexane; adults
Outline: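 Single S. furcifera adults (2 days post-emergence, starved 0.5 h) chose between odorant (100 µL of 50 µL/L on filter paper) and hexane control in a glass Y-tube, charcoal-filtered humidified air 300 mL/min per arm, 25 ± 1 °C, 50% RH. Choice scored if insect passed half an arm and stayed >1 min within 10 min; 45 insects per compound, chi-squared test.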

Sequence of SfurOBP2 (V5T759 entry or part of it): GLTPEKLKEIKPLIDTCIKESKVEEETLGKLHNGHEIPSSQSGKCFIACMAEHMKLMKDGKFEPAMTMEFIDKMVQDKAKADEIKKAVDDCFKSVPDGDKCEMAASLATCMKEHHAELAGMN

**Q.** What does the source list for Cc1ccc(C(C)C)cc1 [4-isopropyltoluene]?
**A.** pIC50 (SfurOBP2): < 4.70; Fluorescence competitive binding assay, OBP2 (raw fluorescence reading) (SfurOBP2; ligand concentration 2 (unit not given), replicate column 1 of 3): 17529; Fluorescence competitive binding assay, OBP2 (raw fluorescence reading) (SfurOBP2; ligand concentration 2 (unit not given), replicate column 2 of 3): 17068; Fluorescence competitive binding assay, OBP2 (raw fluorescence reading) (SfurOBP2; ligand concentration 2 (unit not given), replicate column 3 of 3): 16667; Fluorescence competitive binding assay, OBP2 (raw fluorescence reading) (SfurOBP2; ligand concentration 4 (unit not given), replicate column 1 of 3): 17068; Fluorescence competitive binding assay, OBP2 (raw fluorescence reading) (SfurOBP2; ligand concentration 4 (unit not given), replicate column 2 of 3): 16662; Fluorescence competitive binding assay, OBP2 (raw fluorescence reading) (SfurOBP2; ligand concentration 4 (unit not given), replicate column 3 of 3): 16270; Fluorescence competitive binding assay, OBP2 (raw fluorescence reading) (SfurOBP2; ligand concentration 6 (unit not given), replicate column 1 of 3): 17127; Fluorescence competitive binding assay, OBP2 (raw fluorescence reading) (SfurOBP2; ligand concentration 6 (unit not given), replicate column 2 of 3): 17348; Fluorescence competitive binding assay, OBP2 (raw fluorescence reading) (SfurOBP2; ligand concentration 6 (unit not given), replicate column 3 of 3): 16845; Fluorescence competitive binding assay, OBP2 (raw fluorescence reading) (SfurOBP2; ligand concentration 8 (unit not given), replicate column 1 of 3): 17260; Fluorescence competitive binding assay, OBP2 (raw fluorescence reading) (SfurOBP2; ligand concentration 8 (unit not given), replicate column 2 of 3): 16330; Fluorescence competitive binding assay, OBP2 (raw fluorescence reading) (SfurOBP2; ligand concentration 8 (unit not given), replicate column 3 of 3): 16495; Fluorescence competitive binding assay, OBP2 (raw fluorescence reading) (SfurOBP2; ligand concentration 10 (unit not given), replicate column 1 of 3): 16487; Fluorescence competitive binding assay, OBP2 (raw fluorescence reading) (SfurOBP2; ligand concentration 10 (unit not given), replicate column 2 of 3): 17551; Fluorescence competitive binding assay, OBP2 (raw fluorescence reading) (SfurOBP2; ligand concentration 10 (unit not given), replicate column 3 of 3): 16673; Fluorescence competitive binding assay, OBP2 (raw fluorescence reading) (SfurOBP2; ligand concentration 12 (unit not given), replicate column 1 of 3): 14433; Fluorescence competitive binding assay, OBP2 (raw fluorescence reading) (SfurOBP2; ligand concentration 12 (unit not given), replicate column 2 of 3): 15818; Fluorescence competitive binding assay, OBP2 (raw fluorescence reading) (SfurOBP2; ligand concentration 12 (unit not given), replicate column 3 of 3): 14693; Fluorescence competitive binding assay, OBP2 (raw fluorescence reading) (SfurOBP2; ligand concentration 14 (unit not given), replicate column 1 of 3): 14333; Fluorescence competitive binding assay, OBP2 (raw fluorescence reading) (SfurOBP2; ligand concentration 14 (unit not given), replicate column 2 of 3): 14565; Fluorescence competitive binding assay, OBP2 (raw fluorescence reading) (SfurOBP2; ligand concentration 14 (unit not given), replicate column 3 of 3): 13503; Fluorescence competitive binding assay, OBP2 (raw fluorescence reading) (SfurOBP2; ligand concentration 16 (unit not given), replicate column 1 of 3): 12972; Fluorescence competitive binding assay, OBP2 (raw fluorescence reading) (SfurOBP2; ligand concentration 16 (unit not given), replicate column 2 of 3): 13456; Fluorescence competitive binding assay, OBP2 (raw fluorescence reading) (SfurOBP2; ligand concentration 16 (unit not given), replicate column 3 of 3): 13282; Fluorescence competitive binding assay, OBP2 (raw fluorescence reading) (SfurOBP2; ligand concentration 18 (unit not given), replicate column 1 of 3): 13043; Fluorescence competitive binding assay, OBP2 (raw fluorescence reading) (SfurOBP2; ligand concentration 18 (unit not given), replicate column 2 of 3): 13102; Fluorescence competitive binding assay, OBP2 (raw fluorescence reading) (SfurOBP2; ligand concentration 18 (unit not given), replicate column 3 of 3): 13475; Fluorescence competitive binding assay, OBP2 (raw fluorescence reading) (SfurOBP2; ligand concentration 20 (unit not given), replicate column 1 of 3): 13105; Fluorescence competitive binding assay, OBP2 (raw fluorescence reading) (SfurOBP2; ligand concentration 20 (unit not given), replicate column 2 of 3): 12354; Fluorescence competitive binding assay, OBP2 (raw fluorescence reading) (SfurOBP2; ligand concentration 20 (unit not given), replicate column 3 of 3): 13093; pIC50 (SfurOBP11): < 4.70; Fluorescence intensity, fluorescence competitive binding assay, OBP11 (SfurOBP11; ligand concentration 2, replicate 1): 35978; Fluorescence intensity, fluorescence competitive binding assay, OBP11 (SfurOBP11; ligand concentration 2, replicate 2): 29566; Fluorescence intensity, fluorescence competitive binding assay, OBP11 (SfurOBP11; ligand concentration 2, replicate 3): 32252; Fluorescence intensity, fluorescence competitive binding assay, OBP11 (SfurOBP11; ligand concentration 4, replicate 1): 30015; Fluorescence intensity, fluorescence competitive binding assay, OBP11 (SfurOBP11; ligand concentration 4, replicate 2): 32067; Fluorescence intensity, fluorescence competitive binding assay, OBP11 (SfurOBP11; ligand concentration 4, replicate 3): 31035; Fluorescence intensity, fluorescence competitive binding assay, OBP11 (SfurOBP11; ligand concentration 6, replicate 1): 30703; Fluorescence intensity, fluorescence competitive binding assay, OBP11 (SfurOBP11; ligand concentration 6, replicate 2): 29596; Fluorescence intensity, fluorescence competitive binding assay, OBP11 (SfurOBP11; ligand concentration 6, replicate 3): 29854; Fluorescence intensity, fluorescence competitive binding assay, OBP11 (SfurOBP11; ligand concentration 8, replicate 1): 26981; Fluorescence intensity, fluorescence competitive binding assay, OBP11 (SfurOBP11; ligand concentration 8, replicate 2): 27991; Fluorescence intensity, fluorescence competitive binding assay, OBP11 (SfurOBP11; ligand concentration 8, replicate 3): 25842; Fluorescence intensity, fluorescence competitive binding assay, OBP11 (SfurOBP11; ligand concentration 10, replicate 1): 25875; Fluorescence intensity, fluorescence competitive binding assay, OBP11 (SfurOBP11; ligand concentration 10, replicate 2): 25879; Fluorescence intensity, fluorescence competitive binding assay, OBP11 (SfurOBP11; ligand concentration 10, replicate 3): 25958; Fluorescence intensity, fluorescence competitive binding assay, OBP11 (SfurOBP11; ligand concentration 12, replicate 1): 23828; Fluorescence intensity, fluorescence competitive binding assay, OBP11 (SfurOBP11; ligand concentration 12, replicate 2): 23071; Fluorescence intensity, fluorescence competitive binding assay, OBP11 (SfurOBP11; ligand concentration 12, replicate 3): 23450; Fluorescence intensity, fluorescence competitive binding assay, OBP11 (SfurOBP11; ligand concentration 14, replicate 1): 21639; Fluorescence intensity, fluorescence competitive binding assay, OBP11 (SfurOBP11; ligand concentration 14, replicate 2): 22165; Fluorescence intensity, fluorescence competitive binding assay, OBP11 (SfurOBP11; ligand concentration 14, replicate 3): 24226; Fluorescence intensity, fluorescence competitive binding assay, OBP11 (SfurOBP11; ligand concentration 16, replicate 1): 19389; Fluorescence intensity, fluorescence competitive binding assay, OBP11 (SfurOBP11; ligand concentration 16, replicate 2): 17044; Fluorescence intensity, fluorescence competitive binding assay, OBP11 (SfurOBP11; ligand concentration 16, replicate 3): 20238; Fluorescence intensity, fluorescence competitive binding assay, OBP11 (SfurOBP11; ligand concentration 18, replicate 1): 24841; Fluorescence intensity, fluorescence competitive binding assay, OBP11 (SfurOBP11; ligand concentration 18, replicate 2): 23918; Fluorescence intensity, fluorescence competitive binding assay, OBP11 (SfurOBP11; ligand concentration 18, replicate 3): 23440; Fluorescence intensity, fluorescence competitive binding assay, OBP11 (SfurOBP11; ligand concentration 20, replicate 1): 24558; Fluorescence intensity, fluorescence competitive binding assay, OBP11 (SfurOBP11; ligand concentration 20, replicate 2): 23570; Fluorescence intensity, fluorescence competitive binding assay, OBP11 (SfurOBP11; ligand concentration 20, replicate 3): 24060; pIC50 (SfurOBP1): < 4.70; Fluorescence competitive binding assay, fluorescence intensity (SfurOBP1; ligand concentration 2 (μM)): 7244 and 8974 and 9151; Fluorescence competitive binding assay, fluorescence intensity (SfurOBP1; ligand concentration 4 (μM)): 8883 and 8922 and 8958; Fluorescence competitive binding assay, fluorescence intensity (SfurOBP1; ligand concentration 6 (μM)): 7592 and 6723 and 7351; Fluorescence competitive binding assay, fluorescence intensity (SfurOBP1; ligand concentration 8 (μM)): 6920 and 7774 and 7302; Fluorescence competitive binding assay, fluorescence intensity (SfurOBP1; ligand concentration 10 (μM)): 7780 and 7649 and 7941; Fluorescence competitive binding assay, fluorescence intensity (SfurOBP1; ligand concentration 12 (μM)): 6330 and 8293 and 7991; Fluorescence competitive binding assay, fluorescence intensity (SfurOBP1; ligand concentration 14 (μM)): 6493 and 6423 and 6689; Fluorescence competitive binding assay, fluorescence intensity (SfurOBP1; ligand concentration 16 (μM)): 5419 and 7344 and 6052; Fluorescence competitive binding assay, fluorescence intensity (SfurOBP1; ligand concentration 18 (μM)): 6795 and 8973 and 7227; Fluorescence competitive binding assay, fluorescence intensity (SfurOBP1; ligand concentration 20 (μM)): 8723 and 7567 and 6306; pIC50 (SfurOBP3): < 4.70; Fluorescence competitive binding assay, fluorescence intensity (SfurOBP3; ligand concentration 2): 76459 and 72745 and 73014; Fluorescence competitive binding assay, fluorescence intensity (SfurOBP3; ligand concentration 4): 75454 and 75539 and 76517; Fluorescence competitive binding assay, fluorescence intensity (SfurOBP3; ligand concentration 6): 77021 and 76644 and 73341; Fluorescence competitive binding assay, fluorescence intensity (SfurOBP3; ligand concentration 8): 70448 and 67651 and 65820; Fluorescence competitive binding assay, fluorescence intensity (SfurOBP3; ligand concentration 10): 65984 and 64535 and 66083; Fluorescence competitive binding assay, fluorescence intensity (SfurOBP3; ligand concentration 12): 59229 and 62714 and 59705; Fluorescence competitive binding assay, fluorescence intensity (SfurOBP3; ligand concentration 14): 51855 and 54624 and 58162; Fluorescence competitive binding assay, fluorescence intensity (SfurOBP3; ligand concentration 16): 47509 and 50343 and 51946; Fluorescence competitive binding assay, fluorescence intensity (SfurOBP3; ligand concentration 18): 53658 and 55976 and 54775; Fluorescence competitive binding assay, fluorescence intensity (SfurOBP3; ligand concentration 20): 49838 and 49582 and 48822; number of insects choosing hexane arm (S. furcifera adults): 13; number of insects choosing volatilies arm (S. furcifera adults): 11; number of insects failed (no choice) (S. furcifera adults): 16
